Earlier results in patent US7993907B2, “Biochips and method of screening using drug induced gene and protein expression profiling” (Mowycal Lending, LLC, priority 2001, dated 2011).
Read-outs that look alike come from different tables or passages of the source. Where no end group is shown, it is not given here. The star is where a group is joined. For = O=C*

Experiments:
[1] = Indication Alzheimer's Disease
[2] = examples of hazardous chemicals
[3] = Indication Breast Cancer
[4] = Indication Osteoporosis
[5] = Indication Acute Respiratory Disease
[6] = Indication Congestive Heart Failure
[7] = test system: human peripheral blood cells; settings: cells stimulated by pro-inflammatory agents or molecules

## C[C@]12CC[C@H](O)CC1=CC[C@@H]1[C@@H]2CC[C@]2(C)C(=O)CC[C@@H]12 [DHEA]
[1]
  Termination (reason drug was discontinued or terminated in FDA trials): Results were equal

## CC[n+]1c(-c2ccccc2)c2cc(N)ccc2c2ccc(N)cc21 [Ethidium Bromide (EtBr), Ethidium Bromide]
[2]
  Hazard: Mutagen

## CC/C(=C(\c1ccc(I)cc1)c1ccc(OCCN2CCCC2)cc1)c1ccccc1 [Idoxifene]
[3]
  Termination (reason drug was discontinued or terminated in FDA trials): Lack of efficacy
[4]
  Termination (reason drug was discontinued or terminated in FDA trials): Lack of efficacy

## C[C@@H](O)CCCCn1c(=O)c2c(ncn2C)n(C)c1=O [Lisofylline]
[5]
  Termination (reason drug was discontinued or terminated in FDA trials): Safety Board

## ENBREL
[6]
  Termination (reason drug was discontinued or terminated in FDA trials): Lack of efficacy

## f-Met-Leu-Phe-Phe (For-MLFF) [HK-X]
G protein γ kinase
  Mechanism of action on G protein γ kinase: inhibition of G protein γ kinase
[7]
  Effect on pro-inflammatory responses of human peripheral blood cells: inactivate certain pro-inflammatory responses
